Article PMC10952572, “Improved PIEZO1 agonism through 4‐benzoic acid modification of Yoda1” (British Journal of Pharmacology, 2023)

Tested on: mouse portal vein
Test: Wire myography, relaxation of phenylephrine pre-constricted vein
Details: for Relaxation of portal vein: 0.1-10 μM, pre-constricted with 10 μM phenylephrine; for EC50: mouse portal vein pre-constricted with 10 μM phenylephrine, Hill fit
Description: Mice were anaesthetised with isoflurane (5% induction and 1.5% maintenance) in 95% O2 according to Schedule 1 procedure approved by the UK Home Office. The portal vein was quickly dissected and placed in Krebs solution. The Krebs PV solution consisted of 118 mM NaCl, 4.7 mM KCl, 2.5 mM CaCl2, 1.2 mM KH2PO4, 1.2 mM MgSO4·7H2O, 25.2 mM NaHCO3 and 11.1 mM glucose. By means of a dissecting microscope, adhering perivascular tissue was carefully removed and the vein was cut into 1 mm segments.
Vein segments were mounted onto two thin stainless steel wires in an isometric myograph (Multi Wire Myograph System 620M from Danish Myograph Technology [DMT]), for which the force transducer was calibrated once per month according to the manufacturer's instructions. The recording chamber was filled with gassed Krebs solution (95% O2/5% CO2, pH 7.4). The segments were then stretched to a normalised internal diameter according to the manufacturer's instructions. The mounted rings were kept in a 5 ml chamber containing Krebs solution at 37°C and continuously bubbled with a gas mixture of 95% O2 and 5% CO2 (pH 7.4). After an equilibration period of 60 min, the contractile function of the vessel was tested by replacing the Krebs solution by 60 mM K^+ solution. Following washout, the vein was contracted once with 10 μM phenylephrine and then Yoda1, KC159 or KC289 was applied with the concentrations of 0.1 to 10 μM. The NOS inhibitor, L‐NAME, (100 μM), was pre‐incubated for 20 min before the PIEZO1 modulator.
Because the anticipated effect of test compounds was to cause vessel relaxation, phenylephrine was applied to induce tension and the maximum value of this tension was defined as 0% relaxation (no relaxation). The value of tension immediately prior to application of phenylephrine was defined as 100% relaxation. Data are normalised to these values because, otherwise, the intrinsic variability in the absolute amount of tension induced by phenylephrine obscured exploration of the relaxant effect of compounds.
OriginPro 2020 was used for the analysis of myography data. Myography traces show readings taken every 0.5 or 1 s and were smoothed with the Savitzky–Golay filter set to 70 points. To compare the agonistic activity of Yoda1 analogues, basal vessel tension prior to compound injection was subtracted. Maximal tension in the presence of PE alone was used to define 0% relaxation. The tension value prior to PE application was defined as 100% relaxation. Following the addition of test compounds, tension readings were taken at the last time point of the treatments and expressed as percentage relaxation.

SMILES | Relaxation of portal vein | EC50 | EC50 (Mus musculus) | Relaxation in portal vein from PIEZO1ΔEC mice (endothelial PIEZO1 deletion versus control mice) | Relaxant effect after L-NAME (pre-incubation with 100 μM L-NAME)
O=C(O)c1ccc(-c2nnc(SCc3c(Cl)cccc3Cl)s2)cc1 [KC159] | concentration‐dependent relaxation | 1.14 µM |  |  | 
O=C([O-])c1ccc(-c2nnc(SCc3c(Cl)cccc3Cl)s2)cc1.[K+] [KC289] | concentration‐dependent relaxation |  | 1.2 µM | inhibited by endothelial PIEZO1 deletion | abolishes the relaxant effect
Clc1cccc(Cl)c1CSc1nnc(-c2cnccn2)s1 [Yoda1, 2‐[5‐[[(2,6‐dichlorophenyl)methyl]thio]‐1,3,4‐thiadiazol‐2‐yl]pyrazine] | concentration‐dependent relaxation |  |  |  | 
